111 molecules from the RepoRT retention time repository can be followed below.

The data set in a line: Agilent ZORBAX 300 SB-C18, 150 × 1 mm, 3.5 µm; A: water + 0.01% heptafluorobutyric acid; B: acetonitrile + 0.01% heptafluorobutyric acid; gradient (min/%B) 0/0 100/90. To be noted: stereoisomer not certain.
Take `C#CC(C)(CC)NC(=O)C(=Cc1ccccc1)NC(=O)c1ccccc1` (stereo unspecified): the LC retention time was determined as 13.5 min.

For the molecule `CC(C)[N+]1(C)C2CCC1CC(OC(=O)C(CO)c1ccccc1)C2` (stereo unspecified), the LC retention time amounted to 9.23 min.

In the case of `CCCCCCC(N)=O`, the LC retention time stood at 9.68 min.

Turning to `Cc1ccc(OCCOCn2c(C)cc(=O)[nH]c2=O)cc1`, the LC retention time came out at 11 min.

As to `CC(=O)Oc1ccccc1C=Cc1nc2ccccc2c(=O)o1`, the LC retention time was 14.8 min.

As for `O=C(Nc1cccc(C2=NCCN2)c1)Nc1cccc(C2=NCCN2)c1`, the LC retention time was 7.98 min.

For `CNc1ccccc1C`, the LC retention time was found to be 8.19 min.

As to `CCOC(=O)c1c(C)n(C2CCCCC2)c2ccc(OC(C)=O)cc12`, the LC retention time was 17.8 min.

In the case of `CC(C)c1ccc(C=C2Nc3ccccc3C2=O)cc1`, the LC retention time worked out at 16.9 min.

As to `CC1(C)SC2C(NC(=O)Cc3ccccc3)C(=O)N2C1C(=O)O` (stereo unspecified), the LC retention time is 10.5 min.

As for `Cc1cc(C)c(NC(=O)c2ccncc2)c(C)c1`, the LC retention time was 10.4 min.

For the molecule `Cc1ccccc1C(=O)NC1CC(C)(C)NC(C)(C)C1`, the LC retention time was 8.46 min.

Consider `CCCCc1ccc(NC(=O)Cc2ccc(OC)c(OC)c2)cc1`, for which the LC retention time was 15.6 min.

Take `OCc1ccccc1CN1CCCC1`: the LC retention time was determined as 7.7 min.

For `Cn1c(=O)c2c(ncn2C)n(C)c1=O`, the LC retention time was found to be 7.49 min.

Turning to `Cc1sc(C)c(CNCC(C)C)c1CNCC(C)C`, the LC retention time came out at 8.93 min.

For `CCCn1cnc2c1c(=O)n(CCCCC(C)=O)c(=O)n2C`, the LC retention time stood at 10.2 min.

With `COC(=O)c1ccc(NC(=O)Nc2cccc3ccccc23)cc1`, the LC retention time was determined as 14.3 min.

On to `CC(CCc1ccccc1)NCc1ccco1` (stereo unspecified), for which the LC retention time is 9.89 min.

In the case of `CC(C)(C)c1ccc2[nH]c3c(c2c1)CCCC3=O`, the LC retention time was determined as 16.5 min.

As for `COc1ccc(N2C(=O)CC(C3CCCO3)C2=O)cc1` (stereo unspecified), the LC retention time came to 10.7 min.

Regarding `CCCCCCCCCC(=O)N(C)C`, the LC retention time is 16.6 min.

`c1cncc(Cn2cccc2)c1`: the LC retention time turned out to be 8.31 min.

For `CCN(CC)C(=O)c1cc(NC(=O)c2ccc3c(c2)c(=O)n(C)c(=O)n3C)c(OC)c(OC)c1`, the LC retention time came to 11.7 min.

Regarding `Cc1cc(C)c2c(=O)n(CC(=O)NCCCc3ccccc3)c(=O)n(C)c2n1`, the LC retention time came to 14.1 min.

In the case of `Nc1ccc(C(=O)N2CCC(c3ccccc3)C2)cc1` (stereo unspecified), the LC retention time was 11 min.

For the molecule `CCNCCNCC`, the LC retention time is 6.88 min.

`CC(NC(=O)c1ccc(CN2CCc3ccccc3C2)cc1)c1ccccc1` (stereo unspecified): the LC retention time was 10.5 min.

With `NC1CCc2ccccc21` (stereo unspecified), the LC retention time is 7.85 min.

In the case of `Cc1ccccn1`, the LC retention time is 6.01 min.

Regarding `Cc1ccc(CN2C(=O)CCC2=O)o1`, the LC retention time is 9.52 min.

As for `O=C(C=Cc1ccccc1)c1ccc(O)c(O)c1O`, the LC retention time is 12.6 min.

Turning to `C#Cc1cncn1C`, the LC retention time came to 6.39 min.

For the molecule `CC(=O)NC(NC(C)=O)c1ccncc1`, the LC retention time came to 5.53 min.

In the case of `CC(=NNc1ccccc1)C1=C(C)NC(=O)NC1c1ccccc1` (stereo unspecified), the LC retention time is 10.8 min.

Consider `CCC(NC)c1ccccc1OC` (stereo unspecified), for which the LC retention time was determined as 9.09 min.

In the case of `C=CCNc1ccccc1`, the LC retention time was 9.55 min.

On to `CN(C)CCCN(C)C`, for which the LC retention time came to 7.19 min.

As to `Oc1ccc(-c2cnc3ccccc3n2)cc1`, the LC retention time was 11.4 min.

In the case of `CCCCCCCCCCCCN(C)C`, the LC retention time turned out to be 13.7 min.

In the case of `c1ccc(-c2cc(-c3ccccc3)n(-c3ccccc3)n2)cc1`, the LC retention time stood at 19 min.

For `NC(=O)NC1CCCCC1`, the LC retention time stood at 7.79 min.

For `CCN(CCCCOC(=O)c1ccc(OC)c(OC)c1)C(C)Cc1ccc(OC)cc1` (stereo unspecified), the LC retention time came to 11.9 min.

As to `CN(C)c1ccc(C(O)c2ccc(N(C)C)cc2)cc1`, the LC retention time is 9.42 min.

For the molecule `CC(C(=O)c1ccccc1)[n+]1ccccc1` (stereo unspecified), the LC retention time was 8.43 min.

Regarding `O=C(O)CCc1ccc(-c2ccccc2)[nH]1`, the LC retention time is 11.9 min.

Consider `CN1COc2ccc3ccccc3c2C1`, for which the LC retention time turned out to be 9.56 min.

Regarding `CC1(C)CC(NC(=O)NC2CCCCC2)CC(C)(C)N1`, the LC retention time came to 8.78 min.

On to `Cn1c(-c2c(-c3ccc4ccccc4n3)cnc3ccccc23)nc2ccccc21`, for which the LC retention time came to 12.3 min.

For the molecule `CCCCCCNC(=O)c1ccc(OC(C)=O)cc1`, the LC retention time is 13.8 min.

Regarding `CC(=O)Nc1ccccc1N`, the LC retention time was 6.82 min.

Consider `CN(C)CCC(C)(O)Cc1ccccc1` (stereo unspecified), for which the LC retention time came to 8.38 min.

Turning to `Nc1ccc(N2CCCC2=O)cc1N1CCCC1=O`, the LC retention time amounted to 7.63 min.

On to `C=CC1CN2CCC1CC2C(O)c1ccnc2ccc(OC)cc12` (stereo unspecified), for which the LC retention time turned out to be 9.1 min.

As for `O=C(O)C1Cc2ccccc2CN1C(=O)c1ccccc1` (stereo unspecified), the LC retention time stood at 11.2 min.

Take `CCCc1ccccc1N`: the LC retention time amounted to 9.54 min.

Turning to `Cc1cccc2c1N(C)C(=O)C2=O`, the LC retention time is 10.1 min.

As to `CSC1=NC(C)(C)Cc2c(C)cccc21`, the LC retention time was determined as 9.67 min.

Take `O=C1OC(c2c[nH]c3ccccc23)c2ccccc21` (stereo unspecified): the LC retention time was found to be 12.4 min.

As for `CC(C)NC(=O)C(=O)NCCCO`, the LC retention time came to 6.9 min.

With `Cc1ccc(-c2cc(C(=O)O)c3ccccc3n2)cc1`, the LC retention time came out at 12.4 min.

As to `Cn1cccc1C=NNC(=O)CCCC(=O)NN=Cc1cccn1C`, the LC retention time is 10.2 min.

Consider `CCCCSCCSC(=N)N`, for which the LC retention time was 9.27 min.

For `CSc1nnc(C)c(C)n1`, the LC retention time came to 8.89 min.

For `N=c1c2c3c(sc2ncn1N)CCC3`, the LC retention time amounted to 8.21 min.

As for `Cc1ccc2c(c1)C(=O)c1cnc(C)cc1-2`, the LC retention time was 10.3 min.

Consider `COC(=O)Cn1ncccc1=O`, for which the LC retention time was 6.64 min.

In the case of `c1ccc(-c2nc3ccccc3o2)cc1`, the LC retention time is 15.4 min.

In the case of `CC1CCCCN1C(=S)NCc1ccccc1` (stereo unspecified), the LC retention time came out at 14.3 min.

For the molecule `C[N+]12CCC(CC1)C1CC(O)CCC12` (stereo unspecified), the LC retention time came to 6.39 min.

`O=C1CCCc2c1[nH]c1ccccc21`: the LC retention time was found to be 12.3 min.

`O=S(=O)(O)CCN1CCOCC1`: the LC retention time stood at 1.67 min.

Regarding `c1ccc(-n2c3c(c4ccccc42)CCC3)cc1`, the LC retention time was 20.1 min.

With `COc1ccc(NC(=O)Nc2ccc(OCC(=O)N3CCOCC3)cc2)cc1`, the LC retention time was 10 min.

For the molecule `Cc1cc(C)c(C=CC(=O)c2cccs2)c(C)c1`, the LC retention time came out at 18.2 min.

As to `CN1C(=O)CC(N2CCN(C(=O)CN3CCCC3)CC2)C1=O` (stereo unspecified), the LC retention time came out at 7.12 min.

Regarding `CC1=NN(Cc2c[nH]c3ccccc23)C(C)(C)C1`, the LC retention time is 9.37 min.

Regarding `CC(=O)NC(Cc1ccc(O)cc1)C(N)=O` (stereo unspecified), the LC retention time came to 6.07 min.

Consider `N=C(N)c1ccc(N)cc1`, for which the LC retention time came to 6.62 min.

For `Nc1ccccc1N`, the LC retention time worked out at 6.66 min.

For `CC(C)(C)c1ccc(-c2cc(C(=O)O)c3c(ccc4ccccc43)n2)cc1`, the LC retention time was 16.4 min.

With `C=CCNC1(c2ccccc2)CCCCC1`, the LC retention time is 9.71 min.

Take `CN1CCC23CCCCC2C1Cc1ccc(O)cc13` (stereo unspecified): the LC retention time amounted to 9.18 min.

Turning to `CC1=CC(=O)C(C)(C)NC1`, the LC retention time was 6.78 min.

`CC(=O)N1CCc2cc(C(=O)O)ccc21`: the LC retention time was 8.48 min.

As to `CCSc1cccc2cccnc12`, the LC retention time is 11.7 min.

Regarding `CCC(C)C(N)C(=O)N1CCCC1C(=O)NC(C(=O)O)C(C)CC` (stereo unspecified), the LC retention time was 8.56 min.

Turning to `COc1cc(C=CC(=O)c2ccc3c(c2)OCO3)cc(OC)c1OC`, the LC retention time came to 14.7 min.

`CCCCCCCCCCNCCCCCCCCCC`: the LC retention time came out at 17.8 min.

Take `Cc1ccc(-c2ccc(CCC(=O)O)n2CC(=O)O)cc1`: the LC retention time is 11.5 min.

Take `CCN1C(=O)CC(N2CCC(n3c(=O)[nH]c4ccccc43)CC2)C1=O` (stereo unspecified): the LC retention time stood at 8.81 min.

Turning to `CNCCCn1c(=O)[nH]c2ccccc21`, the LC retention time is 7.64 min.

With `Cc1ccc(NC(=O)c2c(C)[nH]c(C)c2C)c(C)c1`, the LC retention time worked out at 13.2 min.

Take `Cc1[nH]c2c(c1C)C(=O)CCC2`: the LC retention time was found to be 8.94 min.

Take `Cn1c(C(C)(C)C)nc(N)nc1=O`: the LC retention time was determined as 7.21 min.

`Cn1c2c(c(=O)n(C)c1=O)C1c3ccccc3OCC1C(C)(C)O2` (stereo unspecified): the LC retention time turned out to be 13.2 min.

Turning to `COc1ccc2c(=O)c(C)c(-c3ccccc3)oc2c1CN(C)C`, the LC retention time amounted to 10.1 min.

Regarding `Cc1nc(=S)c2ccccc2[nH]1`, the LC retention time stood at 9.45 min.

As for `NC(N)=NC(CC(=O)O)C(=O)O` (stereo unspecified), the LC retention time stood at 2.11 min.

`NCC1(O)CCCCC1`: the LC retention time was found to be 7.06 min.

Regarding `COc1cccc(C2(O)CCCCC2CN(C)C)c1` (stereo unspecified), the LC retention time was found to be 9.38 min.

In the case of `Nc1cccc(CCC(=O)O)c1`, the LC retention time came to 7.06 min.

In the case of `CNC(=S)Nc1c(C)cccc1C`, the LC retention time was found to be 9.89 min.

In the case of `CCOC(=O)C(N)CCCN=C(N)N` (stereo unspecified), the LC retention time was determined as 7.25 min.

Regarding `Cc1cc(=O)cc(C)n1C`, the LC retention time was 6.83 min.

As for `Cc1ccc(NC2=NCC(C)S2)cc1C` (stereo unspecified), the LC retention time turned out to be 9.88 min.

On to `O=C1NC(O)C(O)N1` (stereo unspecified), for which the LC retention time worked out at 1.42 min.

For the molecule `O=C(NCCc1ccco1)c1cccc2c1oc1ccccc12`, the LC retention time was 15.7 min.

As to `Cn1c(C(c2ccccc2)c2ccccc2)n[nH]c1=S`, the LC retention time turned out to be 12.9 min.

For `Cc1cccnn1`, the LC retention time stood at 5.91 min.

On to `CC(C)CNC(=O)c1cccc2c1-c1ccccc1C2=O`, for which the LC retention time was determined as 13.3 min.
